Tests used:
Type in all cases: functional
LOX IMVI = experiment: Anticancer activity against human LOX IMVI cells assessed as cell growth inhibition at 10 uM incubated for 48 hrs by SRB assay relative to control; details: read-out: GI
RXF 393 [1] = experiment: Anticancer activity against human RXF 393 cells assessed as cell growth inhibition incubated for 48 hrs by SRB assay
OVCAR-4 [2] = experiment: Anticancer activity against human OVCAR-4 cells assessed as cell growth inhibition incubated for 48 hrs by SRB assay
K562 = experiment: Anticancer activity against human K562 cells assessed as cell growth inhibition incubated for 48 hrs by SRB assay
MDA-MB-231 [3] = experiment: Anticancer activity against human MDA-MB-231 cells assessed as cell growth inhibition at 10 uM incubated for 48 hrs by SRB assay relative to control; details: read-out: GI
SN12C = experiment: Anticancer activity against human SN12C cells assessed as cell growth inhibition at 10 uM incubated for 48 hrs by SRB assay relative to control; details: read-out: GI
KM12 = experiment: Anticancer activity against human KM12 cells assessed as cell growth inhibition incubated for 48 hrs by SRB assay
HCT-15 [4] = experiment: Anticancer activity against human HCT-15 cells assessed as cell growth inhibition incubated for 48 hrs by SRB assay
OVCAR-5 = experiment: Anticancer activity against human OVCAR-5 cells assessed as cell growth inhibition at 10 uM incubated for 48 hrs by SRB assay relative to control; details: read-out: GI
786-0 = experiment: Anticancer activity against human 786-0 cells assessed as cell growth inhibition at 10 uM incubated for 48 hrs by SRB assay relative to control; details: read-out: GI
HCT-15 [5] = experiment: Anticancer activity against human HCT-15 cells assessed as cell growth inhibition at 10 uM incubated for 48 hrs by SRB assay relative to control; details: read-out: GI
SR = experiment: Anticancer activity against human SR cells assessed as cell growth inhibition at 10 uM incubated for 48 hrs by SRB assay relative to control; details: read-out: GI
SNB-19 = experiment: Anticancer activity against human SNB-19 cells assessed as cell growth inhibition incubated for 48 hrs by SRB assay
HL-60(TB) = experiment: Anticancer activity against human HL-60(TB) cells assessed as cell growth inhibition at 10 uM incubated for 48 hrs by SRB assay relative to control; details: read-out: GI
NCI/ADR-RES = experiment: Anticancer activity against human NCI/ADR-RES cells assessed as cell growth inhibition at 10 uM incubated for 48 hrs by SRB assay relative to control; details: read-out: GI
MOLT-4 [6] = experiment: Anticancer activity against human MOLT-4 cells assessed as cell growth inhibition incubated for 48 hrs by SRB assay
NCI-H522 = experiment: Anticancer activity against human NCI-H522 cells assessed as cell growth inhibition incubated for 48 hrs by SRB assay
Malme-3M = experiment: Anticancer activity against human Malme-3M cells assessed as cell growth inhibition incubated for 48 hrs by SRB assay
SF-268 = experiment: Anticancer activity against human SF-268 cells assessed as cell growth inhibition at 10 uM incubated for 48 hrs by SRB assay relative to control; details: read-out: GI
SK-MEL-28 = experiment: Anticancer activity against human SK-MEL-28 cells assessed as cell growth inhibition at 10 uM incubated for 48 hrs by SRB assay relative to control; details: read-out: GI
BT-549 [7] = experiment: Anticancer activity against human BT-549 cells assessed as cell growth inhibition at 10 uM incubated for 48 hrs by SRB assay relative to control; details: read-out: GI
HCT-116 [8] = experiment: Anticancer activity against human HCT-116 cells assessed as cell growth inhibition at 10 uM incubated for 48 hrs by SRB assay relative to control; details: read-out: GI
SF-295 = experiment: Anticancer activity against human SF-295 cells assessed as cell growth inhibition incubated for 48 hrs by SRB assay
BT-549 [9] = experiment: Anticancer activity against human BT-549 cells assessed as cell growth inhibition incubated for 48 hrs by SRB assay
TK-10 = experiment: Anticancer activity against human TK-10 cells assessed as cell growth inhibition at 10 uM incubated for 48 hrs by SRB assay relative to control; details: read-out: GI
IGROV-1 [10] = experiment: Anticancer activity against human IGROV-1 cells assessed as cell growth inhibition incubated for 48 hrs by SRB assay
NCI-H23 = experiment: Anticancer activity against human NCI-H23 cells assessed as cell growth inhibition incubated for 48 hrs by SRB assay
ACHN = experiment: Anticancer activity against human ACHN cells assessed as cell growth inhibition at 10 uM incubated for 48 hrs by SRB assay relative to control; details: read-out: GI
UO-31 = experiment: Anticancer activity against human UO-31 cells assessed as cell growth inhibition incubated for 48 hrs by SRB assay
MOLT-4 [11] = experiment: Anticancer activity against human MOLT-4 cells assessed as cell growth inhibition at 10 uM incubated for 48 hrs by SRB assay relative to control; details: read-out: GI
HT-29 = experiment: Anticancer activity against human HT-29 cells assessed as cell growth inhibition incubated for 48 hrs by SRB assay
IGROV-1 [12] = experiment: Anticancer activity against human IGROV-1 cells assessed as cell growth inhibition at 10 uM incubated for 48 hrs by SRB assay relative to control; details: read-out: GI
SNB-75 = experiment: Anticancer activity against human SNB-75 cells assessed as cell growth inhibition at 10 uM incubated for 48 hrs by SRB assay relative to control; details: read-out: GI
MDA-MB-231 [13] = experiment: Anticancer activity against human MDA-MB-231 cells assessed as cell growth inhibition incubated for 48 hrs by SRB assay
OVCAR-4 [14] = experiment: Anticancer activity against human OVCAR-4 cells assessed as cell growth inhibition at 10 uM incubated for 48 hrs by SRB assay relative to control; details: read-out: GI
HCT-116 [15] = experiment: Anticancer activity against human HCT-116 cells assessed as cell growth inhibition incubated for 48 hrs by SRB assay
RXF 393 [16] = experiment: Anticancer activity against human RXF 393 cells assessed as cell growth inhibition at 10 uM incubated for 48 hrs by SRB assay relative to control; details: read-out: GI
SF-539 = experiment: Anticancer activity against human SF-539 cells assessed as cell growth inhibition incubated for 48 hrs by SRB assay
A549 = experiment: Anticancer activity against human A549 cells assessed as cell growth inhibition incubated for 48 hrs by SRB assay
OVCAR-3 = experiment: Anticancer activity against human OVCAR-3 cells assessed as cell growth inhibition incubated for 48 hrs by SRB assay
[17] = read-out: LC50 (the source's name)

Compound: NS(=O)(=O)c1ccc(Nc2nc(N/N=C/c3ccccn3)nc(Nc3ccccc3)n2)cc1
- inhibition of growth at 10 µM (LOX IMVI): 143%
- GI50 (RXF 393 [1]): 1.07 µM
- CC50 (RXF 393 [1]; [17]): 6.51 µM
- GI50 (OVCAR-4 [2]): 0.44 µM
- LC50 (concentration killing 50% of cells) (OVCAR-4 [2]): > 100 µM
- GI50 (K562): 0.4 µM
- CC50 (K562; [17]): > 100 µM
- inhibition of growth at 10 µM (MDA-MB-231 [3]): 129%
- inhibition of growth at 10 µM (SN12C): 97%
- GI50 (KM12): 2.14 µM
- CC50 (KM12; [17]): > 100 µM
- GI50 (HCT-15 [4]): 1.45 µM
- CC50 (HCT-15 [4]; [17]): > 100 µM
- inhibition of growth at 10 µM (OVCAR-5): 90%
- inhibition of growth at 10 µM (786-0): 91%
- inhibition of growth at 10 µM (HCT-15 [5]): 82%
- inhibition of growth at 10 µM (SR): 87%
- GI50 (SNB-19): 0.85 µM
- CC50 (SNB-19; [17]): > 100 µM
- inhibition of growth at 10 µM (HL-60(TB)): 97%
- inhibition of growth at 10 µM (NCI/ADR-RES): 51%
- GI50 (MOLT-4 [6]): 0.43 µM
- CC50 (MOLT-4 [6]; [17]): > 100 µM
- GI50 (NCI-H522): 0.45 µM
- CC50 (NCI-H522; [17]): > 100 µM
- GI50 (Malme-3M): 1 µM
- CC50 (Malme-3M; [17]): 6.28 µM
- inhibition of growth at 10 µM (SF-268): 122%
- inhibition of growth at 10 µM (SK-MEL-28): 164%
- inhibition of growth at 10 µM (BT-549 [7]): 120%
- inhibition of growth at 10 µM (HCT-116 [8]): 129%
- GI50 (SF-295): 1.4 µM
- CC50 (SF-295; [17]): > 100 µM
- GI50 (BT-549 [9]): 0.89 µM
- CC50 (BT-549 [9]; [17]): > 100 µM
- inhibition of growth at 10 µM (TK-10): 97%
- GI50 (IGROV-1 [10]): 0.79 µM
- CC50 (IGROV-1 [10]; [17]): > 100 µM
- GI50 (NCI-H23): 1.21 µM
- CC50 (NCI-H23; [17]): 8.41 µM
- inhibition of growth at 10 µM (ACHN): 82%
- GI50 (UO-31): 1.5 µM
- CC50 (UO-31; [17]): 89.5 µM
- inhibition of growth at 10 µM (MOLT-4 [11]): 96%
- GI50 (HT-29): 2.15 µM
- CC50 (HT-29; [17]): > 100 µM
- inhibition of growth at 10 µM (IGROV-1 [12]): 130%
- inhibition of growth at 10 µM (SNB-75): 125%
- GI50 (MDA-MB-231 [13]): 0.5 µM
- LC50 (concentration killing 50% of cells) (MDA-MB-231 [13]): > 100 µM
- inhibition of growth at 10 µM (OVCAR-4 [14]): 120%
- GI50 (HCT-116 [15]): 0.39 µM
- LC50 (concentration killing 50% of cells) (HCT-116 [15]): > 100 µM
- inhibition of growth at 10 µM (RXF 393 [16]): 174%
- GI50 (SF-539): 0.68 µM
- CC50 (SF-539; [17]): 8 µM
- GI50 (A549): 2.29 µM
- LC50 (A549): > 100 µM
- GI50 (OVCAR-3): 0.46 µM
- LC50 (concentration killing 50% of cells) (OVCAR-3): > 100 µM

Source: ChEMBL document CHEMBL5154747, “Discovery of new carbonic anhydrase IX inhibitors as anticancer agents by toning the hydrophobic and hydrophilic rims of the active site to encounter the dual-tail approach” (Eur J Med Chem, 2022)
